Assays:
[1] = system: MRC5 (lung epithelial fibroblast); assay: Extended test against tumor cell lines (ATPlite); format: cell-based; conditions: MRC5 (normal cells), 72 hours
Method: (§1) The compounds of Examples 36/37/40/47/49 were used to carry out extended test against tumor cell lines, wherein 12 kinds of cells were selected, including liver cancer cells, gastric cancer cells, pancreatic cancer cells, colorectal cancer cells, lung cancer cells and normal cells, which were shown in Table 12:
(§2) A 100 mm culture dish with overgrown adherent cells was digested with 1 ml 0.25% trypsin (GIBCO) at 37° C. for 5 min, and the reaction was terminated with 2 ml culture medium (containing 10% FBS, GIBCO). The cells were scattered and collected, after counting, diluted to 1×10^5 cells/ml, and seeded into a 96-well plate at 50 μl/well, 5000 cells/well, excluding the peripheral circle of wells in which no cell was added, but PBS was added, 54 wells in total, and then incubated at 37° C. for 24 hours for adhering.
(§3) The test sample was diluted to final concentration of 4, 1, 0.25, 0.063, 0.016 μM, culture medium was filled in control well, 3 parellel wells were set for each concentration, 50 μl each well, followed by incubation at 37° C. for 72 hours.
(§4) 3) Test after incubation at 37° C. for 72 hours: 50 μL of ATPlite kitsubstrate solution was added in each well, and vibrated for 3 min, followed by placing aside in darkness for 10 min, and then supernatant 100 μl/well was taken and placed on a luminescence test plate; the luminescence test plate that has been fully incubated was placed in a luminescence test instrument, to read luminescence value.
(§5) Cell survival rate (%)=Experimental group RLU/control group RLU×100%. The experimental data were subjected to data analysis and processing by utilizing GraphPad software.

HT-29 = assay: Extended test against tumor cell lines (ATPlite); format: cell-based; conditions: HT-29 (colorectal cancer), 72 hours
Method: as §1, §2, §3, §4, §5

H460 = assay: Extended test against tumor cell lines (ATPlite); format: cell-based; conditions: H460 (lung cancer), 72 hours
Method: as §1, §2, §3, §4, §5

[2] = system: WI-38 (human embryonic lung fibroblast); assay: Extended test against tumor cell lines (ATPlite); format: cell-based; conditions: WI-38 (normal cells), 72 hours
Method: as §1, §2, §3, §4, §5

AsPC-1 = assay: Extended test against tumor cell lines (ATPlite); format: cell-based; conditions: AsPC-1 (pancreatic cancer), 72 hours
Method: as §1, §2, §3, §4, §5

MIA-PaCa-2 = assay: Extended test against tumor cell lines (ATPlite); format: cell-based; conditions: MIA-PaCa-2 (pancreatic cancer), 72 hours
Method: as §1, §2, §3, §4, §5

COLO205 = assay: Extended test against tumor cell lines (ATPlite); format: cell-based; conditions: COLO205 (colorectal cancer), 72 hours
Method: as §1, §2, §3, §4, §5

Huh-7 = assay: Extended test against tumor cell lines (ATPlite); format: cell-based; conditions: Huh-7 (liver cancer), 72 hours
Method: as §1, §2, §3, §4, §5

BGC823 = assay: Extended test against tumor cell lines (ATPlite); format: cell-based; conditions: BGC823 (gastric cancer), 72 hours
Method: as §1, §2, §3, §4, §5

A549 = assay: Extended test against tumor cell lines (ATPlite); format: cell-based; conditions: A549 (lung cancer), 72 hours
Method: as §1, §2, §3, §4, §5

N87 = assay: Extended test against tumor cell lines (ATPlite); format: cell-based; conditions: N87 (gastric cancer), 72 hours
Method: as §1, §2, §3, §4, §5

HepG2 = assay: Extended test against tumor cell lines (ATPlite); format: cell-based; conditions: HepG2 (liver cancer), 72 hours
Method: as §1, §2, §3, §4, §5

BT/Lap^R1.0 = assay: Antitumor bioactivity evaluation, breast cancer cells (ATPlite); format: cell-based, human; conditions: Homo sapiens; for inhibition at 5 µM: test sample 5 μM, 72 hours, read-out: Inhibitory Rate % BT/Lap^R1.0
Outline: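 After plating 5000 cells per well and letting them attach for 24 h, compounds are added at a single 5 μM final concentration, either alone or together with lapatinib at 1 μM. Cultures incubate 72 h at 37 °C before ATP content is measured by luminescence.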

CSc1nccc(N2CCC(N(C)Cc3ccc(Cl)cc3Cl)CC2)n1 [Example 40, N-methyl-N-(2,4-dichlorobenzyl)-N-[1-(2-methylthiopyrimidin-4-yl)piperidin-4-yl]amine]
Survival rate ([1]; 0.016 μM): 93.6%
Survival rate ([1]; 0.063 μM): 88.9%
Survival rate ([1]; 0.25 μM): 91.9%
Survival rate ([1]; 1 μM): 86.5%
Survival rate ([1]; 4 μM): 67.6%
Survival rate (HT-29; 0.016 μM): 100.6%
Survival rate (HT-29; 0.063 μM): 105.4%
Survival rate (HT-29; 0.25 μM): 102%
Survival rate (HT-29; 1 μM): 89.2%
Survival rate (HT-29; 4 μM): 41.2%
Survival rate (H460; 0.016 μM): 98.7%
Survival rate (H460; 0.063 μM): 98.7%
Survival rate (H460; 0.25 μM): 93.7%
Survival rate (H460; 1 μM): 75.9%
Survival rate (H460; 4 μM): 26.3%
Survival rate ([2]; 0.016 μM): 99.3%
Survival rate ([2]; 0.063 μM): 97.3%
Survival rate ([2]; 0.25 μM): 95.8%
Survival rate ([2]; 1 μM): 92.3%
Survival rate ([2]; 4 μM): 64.2%
Survival rate (AsPC-1; 0.016 μM): 97.8%
Survival rate (AsPC-1; 0.063 μM): 96.1%
Survival rate (AsPC-1; 0.25 μM): 93.1%
Survival rate (AsPC-1; 1 μM): 83.3%
Survival rate (AsPC-1; 4 μM): 51.2%
Survival rate (MIA-PaCa-2; 0.016 μM): 94.6%
Survival rate (MIA-PaCa-2; 0.063 μM): 94.8%
Survival rate (MIA-PaCa-2; 0.25 μM): 90.2%
Survival rate (MIA-PaCa-2; 1 μM): 77.3%
Survival rate (MIA-PaCa-2; 4 μM): 20.6%
Survival rate (COLO205; 0.016 μM): 96.2%
Survival rate (COLO205; 0.063 μM): 98.2%
Survival rate (COLO205; 0.25 μM): 98.6%
Survival rate (COLO205; 1 μM): 91.9%
Survival rate (COLO205; 4 μM): 30.3%
Survival rate (Huh-7; 0.016 μM): 93.8%
Survival rate (Huh-7; 0.063 μM): 90.7%
Survival rate (Huh-7; 0.25 μM): 87.3%
Survival rate (Huh-7; 1 μM): 65.2%
Survival rate (Huh-7; 4 μM): 14.3%
Survival rate (BGC823; 0.016 μM): 98.3%
Survival rate (BGC823; 0.063 μM): 103.1%
Survival rate (BGC823; 0.25 μM): 91.3%
Survival rate (BGC823; 1 μM): 73.7%
Survival rate (BGC823; 4 μM): 21.1%
Survival rate (A549; 0.016 μM): 97.1%
Survival rate (A549; 0.063 μM): 95.9%
Survival rate (A549; 0.25 μM): 95.3%
Survival rate (A549; 1 μM): 81.2%
Survival rate (A549; 4 μM): 38%
Survival rate (N87; 0.016 μM): 97.9%
Survival rate (N87; 0.063 μM): 92.7%
Survival rate (N87; 0.25 μM): 89.7%
Survival rate (N87; 1 μM): 71.5%
Survival rate (N87; 4 μM): 36.3%
Survival rate (HepG2; 0.016 μM): 94.7%
Survival rate (HepG2; 0.063 μM): 94.8%
Survival rate (HepG2; 0.25 μM): 86.4%
Survival rate (HepG2; 1 μM): 55.3%
Survival rate (HepG2; 4 μM): 4.5%
IC50 (BT/Lap^R1.0): 1680 nM
inhibition at 5 µM (BT/Lap^R1.0): 68.1%

CSc1nccc(N2CCC(N(C)Cc3ccccc3Cl)CC2)n1 [Example 47, N-methyl-N-(2-chlorobenzyl)-N-[1-(2-methylthiopyrimidin-4-yl)piperidin-4-yl]amine]
Survival rate ([1]; 0.016 μM): 97.3%
Survival rate ([1]; 0.063 μM): 99.5%
Survival rate ([1]; 0.25 μM): 100.3%
Survival rate ([1]; 1 μM): 92.6%
Survival rate ([1]; 4 μM): 74.8%
Survival rate (HT-29; 0.016 μM): 102.8%
Survival rate (HT-29; 0.063 μM): 102.1%
Survival rate (HT-29; 0.25 μM): 101.6%
Survival rate (HT-29; 1 μM): 93.1%
Survival rate (HT-29; 4 μM): 48.8%
Survival rate (H460; 0.016 μM): 99%
Survival rate (H460; 0.063 μM): 99.8%
Survival rate (H460; 0.25 μM): 99.3%
Survival rate (H460; 1 μM): 90.6%
Survival rate (H460; 4 μM): 33.8%
Survival rate ([2]; 0.016 μM): 102.1%
Survival rate ([2]; 0.063 μM): 99.7%
Survival rate ([2]; 0.25 μM): 100.4%
Survival rate ([2]; 1 μM): 95.1%
Survival rate ([2]; 4 μM): 82.1%
Survival rate (AsPC-1; 0.016 μM): 100.2%
Survival rate (AsPC-1; 0.063 μM): 94.7%
Survival rate (AsPC-1; 0.25 μM): 92.8%
Survival rate (AsPC-1; 1 μM): 85.3%
Survival rate (AsPC-1; 4 μM): 53.6%
Survival rate (MIA-PaCa-2; 0.016 μM): 98.5%
Survival rate (MIA-PaCa-2; 0.063 μM): 99.3%
Survival rate (MIA-PaCa-2; 0.25 μM): 97.4%
Survival rate (MIA-PaCa-2; 1 μM): 88.5%
Survival rate (MIA-PaCa-2; 4 μM): 24.5%
Survival rate (COLO205; 0.016 μM): 98.2%
Survival rate (COLO205; 0.063 μM): 96.7%
Survival rate (COLO205; 0.25 μM): 97.9%
Survival rate (COLO205; 1 μM): 96.1%
Survival rate (COLO205; 4 μM): 23.3%
Survival rate (Huh-7; 0.016 μM): 91.1%
Survival rate (Huh-7; 0.063 μM): 88.3%
Survival rate (Huh-7; 0.25 μM): 81.4%
Survival rate (Huh-7; 1 μM): 65.9%
Survival rate (Huh-7; 4 μM): 16.7%
Survival rate (BGC823; 0.016 μM): 99.8%
Survival rate (BGC823; 0.063 μM): 100.6%
Survival rate (BGC823; 0.25 μM): 98.4%
Survival rate (BGC823; 1 μM): 84.3%
Survival rate (BGC823; 4 μM): 24.5%
Survival rate (A549; 0.016 μM): 98.1%
Survival rate (A549; 0.063 μM): 95.3%
Survival rate (A549; 0.25 μM): 93%
Survival rate (A549; 1 μM): 88.7%
Survival rate (A549; 4 μM): 45.9%
Survival rate (N87; 0.016 μM): 89.6%
Survival rate (N87; 0.063 μM): 91.3%
Survival rate (N87; 0.25 μM): 87.8%
Survival rate (N87; 1 μM): 68.6%
Survival rate (N87; 4 μM): 34.8%
Survival rate (HepG2; 0.016 μM): 103.1%
Survival rate (HepG2; 0.063 μM): 102.7%
Survival rate (HepG2; 0.25 μM): 96%
Survival rate (HepG2; 1 μM): 71.4%
Survival rate (HepG2; 4 μM): 7.3%
IC50 (BT/Lap^R1.0): 1700 nM
inhibition at 5 µM (BT/Lap^R1.0): 58.1%
